Data as given in publication PMC3299860 (Antiviral Research, 2012).
“Also recorded” adds a separate entry of the source.

What was measured:
[1] = test system: A/New Jersey/15/2007 (H1N1); assay type: biochemical, human influenza virus
A/Fukui/20/2004 (H3N2) = assay type: biochemical, human influenza virus

## CC(=O)N[C@H]1[C@H]([C@H](O)[C@H](O)CO)OC(C(=O)O)=C[C@@H]1N=C(N)N [zanamivir, 4-guanidino-Neu5Ac2en]
[1]
  susceptibility to NAI (in words): zanamivir-sensitive; also recorded: susceptible
A/Fukui/20/2004 (H3N2)
  susceptibility to NAI (in words): susceptible
